Patent publication US11497740B2, “Use of Jumonji C demethylase inhibitors for the treatment and prevention of chemotherapy resistance and radioresistance in cancer” (THE BOARD OF REGENTS OF THE UNIVERSITY OF TEXAS SYSTEM, priority 2016, dated 2022)

Columns and labels:
H1299 Parental cells = experiment: Emergence of paclitaxel+carboplatin drug-tolerant colonies, H1299 Parental; type: cell-based, human; details: sub-lethal doses with paclitaxel+carboplatin
Excerpt: FIGS. 8A-8E. […] Response was greater than additive, indicated by positive ΔBliss. […] Representative images from replicate assays (n=3) are shown. […] See also FIGS. 15-16.

H1693 T8 = experiment: MTS cell viability assay, H1693 T8 resistant variant vs parental; type: cell-based, human; details: H1693 T8 vs parental
Description: NSCLC lines were treated with paclitaxel+carboplatin combination, given in a ˜2:3 wt/wt ratio, to mirror the clinical dosage values of ˜225 mg/m2 and ˜330 mg/m2, paclitaxel and carboplatin respectively. Note that considering the molecular weights of the two drugs, this translates to approximately a 1 to 3.4 molar ratio. Drugs were given in cycles, following a drug on/drug off treatment scheme. Each cycle consisted of 4-5 days of drug treatment and drug-free culturing for about 1-2 weeks or more to allow the surviving cells to repopulate the plate. […] Untreated parental cells were simultaneously maintained at all times for comparison. Cell viability was assessed in 96-well plates using standard MTS assays (Promega). Treatment duration in MTS assays was 4 days. Drugs were tested in two- or four-fold serial dilutions, totaling 8 different drug concentrations, with 8 replicates per concentration. Response was validated in multiple replicate plates (n≥3).
Cell viability was assessed by standard MTS assays using Promega's CellTiter reagents. Eight drug concentrations given as two- or four-fold dilutions were tested for each chemotherapeutic agent. In addition, each experiment contained eight replicates per concentration and the entire assay was performed in multiple replicates (n≥3).

[1] = tested on: H1355 Parental xenografts; experiment: Subcutaneous xenograft drug response, H1355 Parental; type: in vivo, mice; details: GSK-J4 100 mg/kg i.p. 5x per week; JIB-04 50 mg/kg oral gavage 3x per week; 4 weeks
Description: Animals were housed under standard, sterile conditions at UTSW animal facility. All experiments were carried out under approved IACUC protocols and followed UTSW animal care procedures. For tumor growth rate studies and docetaxel+cisplatin drug response comparisons, 6-8 week old female NOD/SCID mice were used. For all subsequent in vivo drug response studies, 6 week old female athymic nude mice were used (Charles River Labs, Jackson Labs). Experimental details are provided in supplemental information.
Parental and resistant NSCLC cell lines (1×10^6 cells in PBS or RPMI for H1299; 5×10^6 cells in PBS/matrigel for H1355 and HCC4017) were injected subcutaneously into the right flank of mice. Tumor growth was monitored by caliper measurements and tumor volume was calculated by 0.5×length×width^2). Treatment was started when tumors reached ˜150-200 mm3. Drug/Vehicle therapy was given to tumor volume matched pairs. Docetaxel (3 mg/kg) and cisplatin (3 mg/kg) were given i.p. once a week for 3 weeks. […]

[2] = tested on: radiosensitive (HCC1719, H23, H1650, H1395 and H2228) NSCLC cell lines; experiment: Clonogenic survival with IR, radiosensitive NSCLC lines; type: cell-based, Human
Description: Cells were serially diluted to appropriate concentrations and plated into 60-mm dish in triplicate for 4 h. Then cells were treated with the indicated drugs, and irradiated 4 hours later with graded doses of radiation for concurrent treatment or irradiated and 4 hours later the drugs added for post-treatment. All cells were irradiated at room temperature in ambient air using a 137Cs source (Mark 1-68 irradiator, JL Shepherd & Associated). Surviving colonies were stained with crystal violet approximately 10 to 14 days later and colonies formed with more than 50 cells were counted. Clonogenic fraction of irradiated cells was normalized to the plating efficiency of unirradiated controls. The data are presented as the mean±SD. The curve S=e^−(αD+βD2) was fitted to the experimental data using a least square fit algorithm using the program Sigma Plot 11.0 (Systat Software, Inc.).

H1299 NSCLC xenografts = experiment: Tumor growth delay with JIB-04 and IR, H1299 xenografts; type: in vivo, mice; details: JIB-04 50 mg/kg oral gavage, IR 2 Gy 4 h after drug, every other day, 12 doses
Description: H1299 NSCLC cells were injected subcutaneously (5×10^6 cells in 100 μL) into the right posterior leg of female athymic nude mice (nu/nu, 5-6 weeks old). Treatment was initiated when the subcutaneous tumors reached an average size of 150 to 200 mm^3. Mice were treated with JIB-04 (50 mg/kg/day) by oral gavage or with vehicle (12.5% Cremophor EL, 12.5% DMSO as an aqueous suspension) as control; radiation was administered 4 hours after treatment. The treatment regimen consisted of a total of 12 doses of drug and/or ionizing radiation given every other day. Tumor growth delay and the dose enhancement factor were then determined. Body weight and general health were monitored every other day during the drug-treatment period and afterward. Standard survival criteria was applied to ensure animals including severe lethargy, 20% weight loss, tumor burden >2,000 mm^3 and difficulty breathing. Survival data was analyzed using GraphPad Prism software.

[3] = tested on: H3K4me3 demethylase Jumonji enzymes; experiment: Histone demethylase activity in H1299 cellular extracts (H3K4me3); type: cell-based, Human; details: JIB-04 4 h
Description: For Histone demethylase activity determination 2×10^6 H1299 cells were seeded in P150 plates. After 24 h cells were pretreated with JIB-04 or DMSO for 4 h, irradiated with a total dose of 8 Gy of radiation. Then cells were sonicated (3×4 sec) and equal amounts of protein were incubated with a histone H3K4me3 or H3K9me3 substrate in a reaction buffer containing cofactors for 1 h at 37° C. Finally specific immune-detection of the H3K4me2 or H3K9me2 product using the Epigentek kit P-3081 for H3K9me3 demethylation and P-3083 for H3K4me3 demethylation. Background readings were given by heat inactivated extracts.

Row | Compound | emergence of drug-tolerant persister colonies (H1299 Parental cells) | fold increased sensitivity vs parental (H1693 T8) | change in tumor volume relative to treatment start [1] | survival fraction at 2 Gy of radiation (SF2) [2] | survival of tumor bearing mice, JIB-04 with IR (H1299 NSCLC xenografts) | tumor growth, JIB-04 with IR (H1299 NSCLC xenografts) | IR-increased H3K4me3 demethylase activity ([3]; IR 8 Gy, 15 min after radiation) | basal H3K4me3 demethylase activity ([3]; no IR)
1 | CCOC(=O)CCNc1cc(N2CCc3ccccc3CC2)nc(-c2ccccn2)n1 [GSK-J4] | prevented the emergence of drug-tolerant persister colonies |  |  |  |  |  |  | 
2 | Clc1ccc(N/N=C(\c2ccccc2)c2ccccn2)nc1 [JIB-04] |  | ~3 fold | continued to grow in volume | not affecting already radiosensitive lines | survived significantly longer | synergistic robust inhibition of tumor growth | blocked this increased activity | did not have any effects on basal activity
